We go through 2 compounds from PMC6582339 (2019).

The subject of experiment [1] is OBA3 (DNA, aptamer) CGGGGCGAAGCGGGTCCCG
Kind of experiment: solution NMR structure. The conditions noted are these: 10 mM MgCl2; 10 mM Na2HPO4/KH2PO4; pH 7.4, 288-310 K.

Experiment [2] has the same test system. Kind of experiment: fluorescence polarization (OTA intrinsic fluorescence). The conditions noted are these: 10 mM MgCl2; 10 mM Na2HPO4/KH2PO4; pH 7.4, room temperature, 500 nM OTA titrated with aptamer.
Experiment [3] deals with OBAwt-I6 (DNA, aptamer, inosine at 6) GGGGTGAAACGGGTCCCG
Kind of experiment: inosine substitution (Figure S1). The conditions noted are these: 10 mM MgCl2; 10 mM Na2HPO4/KH2PO4; pH 7.4.

Experiment [4] concerns OBAwt (DNA, aptamer) GGGGTGAAACGGGTCCCG
Kind of experiment: fluorescence polarization (OTA intrinsic fluorescence). The conditions noted are these: 10 mM MgCl2; 10 mM Na2HPO4/KH2PO4; pH 7.4, room temperature, 500 nM OTA titrated with aptamer. In general terms: Polarisation of emitted light reports the rotation of a fluorescent probe.

Experiment [5] deals with OBA2 (DNA, aptamer) GGGGCGAAGCGGGTCCCG
The experiment is described as above. The conditions noted are these: 10 mM MgCl2; 10 mM Na2HPO4/KH2PO4; pH 7.4, room temperature, 500 nM OTA titrated with aptamer.

Experiment [6] has as its system OBAwt-I1 (DNA, aptamer, inosine at 1) GGGGTGAAACGGGTCCCG
Kind of experiment: inosine substitution (Figure S1). The conditions noted are these: 10 mM MgCl2; 10 mM Na2HPO4/KH2PO4; pH 7.4.

The test system of experiment [7] is OBAwt-I3 (DNA, aptamer, inosine at 3) GGGGTGAAACGGGTCCCG
Kind of experiment: inosine substitution (Figure S1). The conditions noted are these: 10 mM MgCl2; 10 mM Na2HPO4/KH2PO4; pH 7.4.

The test system of experiment [8] is OBA4 (DNA, aptamer) GGGGTGAAACGGTCCCG
Nature of the experiment: not stated for this variant (Figure S2). The conditions noted are these: 10 mM MgCl2; 10 mM Na2HPO4/KH2PO4; printed NB (no binding); pH 7.4.

Experiment [9] has as its system OBAwt-I12 (DNA, aptamer, inosine at 12) GGGGTGAAACGGGTCCCG
Kind of experiment: inosine substitution (Figure S1). The conditions noted are these: 10 mM MgCl2; 10 mM Na2HPO4/KH2PO4; pH 7.4.

For experiment [10], the system named is OBAwt-I11 (DNA, aptamer, inosine at 11) GGGGTGAAACGGGTCCCG
Nature of the experiment: inosine substitution (Figure S1). The conditions noted are these: 10 mM MgCl2; 10 mM Na2HPO4/KH2PO4; pH 7.4.

Experiment [11] has as its system OBAwt-I2 (DNA, aptamer, inosine at 2) GGGGTGAAACGGGTCCCG
Kind of experiment: inosine substitution (Figure S1). The conditions noted are these: 10 mM MgCl2; 10 mM Na2HPO4/KH2PO4; pH 7.4.

Experiment [12] deals with OBAwt-I13 (DNA, aptamer, inosine at 13) GGGGTGAAACGGGTCCCG
Nature of the experiment: inosine substitution (Figure S1). The conditions noted are these: 10 mM MgCl2; 10 mM Na2HPO4/KH2PO4; pH 7.4.

For experiment [13], the system named is OBA1 (DNA, aptamer) CGGGGTGAAACGGGTCCCG
Nature of the experiment: fluorescence polarization (OTA intrinsic fluorescence). The conditions noted are these: 10 mM MgCl2; 10 mM Na2HPO4/KH2PO4; pH 7.4, room temperature, 500 nM OTA titrated with aptamer.

For experiment [14], the system named is OBAwt-I4 (DNA, aptamer, inosine at 4) GGGGTGAAACGGGTCCCG
Nature of the experiment: inosine substitution (Figure S1). The conditions noted are these: 10 mM MgCl2; 10 mM Na2HPO4/KH2PO4; pH 7.4.

For experiment [15], the system named is OBA6 (DNA, aptamer) GCGGGGCGAAGCGGGTCCCGC
Nature of the experiment: fluorescence polarization (OTA intrinsic fluorescence). The conditions noted are these: 10 mM MgCl2; 10 mM Na2HPO4/KH2PO4; pH 7.4, room temperature, 500 nM OTA titrated with aptamer.

Experiment [16] has as its system OBA5 (DNA, aptamer) CCGGGGCGAAGCGGGTCCCGG
Described as above. The conditions noted are these: 10 mM MgCl2; 10 mM Na2HPO4/KH2PO4; pH 7.4, room temperature, 500 nM OTA titrated with aptamer.

Experiment [17] deals with OBA2 (DNA, aptamer) GGGGCGAAGCGGGTCCCG
Nature of the experiment: 1H NMR imino spectra. The conditions noted are these: 10 mM MgCl2; 10 mM Na2HPO4/KH2PO4; pH 7.4, 2 equivalents of OTB.

In experiment [18] the test system is OBA1 (DNA, aptamer) CGGGGTGAAACGGGTCCCG
Kind of experiment: 1H NMR imino spectra. The conditions noted are these: 10 mM MgCl2; 10 mM Na2HPO4/KH2PO4; pH 7.4, 2 equivalents of OTB.

Experiment [19] deals with OBA3 (DNA, aptamer) CGGGGCGAAGCGGGTCCCG
Kind of experiment: 1H NMR imino spectra. The conditions noted are these: 10 mM MgCl2; 10 mM Na2HPO4/KH2PO4; pH 7.4, 2 equivalents of OTB.

Experiment [20] concerns OBAwt (DNA, aptamer) GGGGTGAAACGGGTCCCG
Kind of experiment: 1H NMR imino titration. The conditions noted are these: 10 mM Mg2+; 10 mM Na2HPO4/KH2PO4; pH 7.4, 288 K, 0.1 mM aptamer.

Molecules are shown by their SMILES.

For the compound `C[C@@H]1Cc2c(Cl)cc(C(=O)N[C@@H](Cc3ccccc3)C(=O)O)c(O)c2C(=O)O1`, the binding result in experiment [1] is reported as “yes”; in experiment [3] it was “no”; in experiment [6], “no”; in experiment [7], “no”; in [8], “no”; in experiment [9] it was “yes”. Further, the binding entry in [10], in experiment [11], in experiment [12] and in experiment [14] was “no” throughout. In addition, the K d in [2] was 1.4 ± 0.1 µM; in experiment [4], 81 ± 2 µM; in experiment [5], 26.2 ± 0.4 µM; in [13], 5.9 ± 0.1 µM; in experiment [15] it was 2.4 ± 0.1 µM; in experiment [16], 1.9 ± 0.1 µM.
As to `C[C@@H]1Cc2ccc(C(=O)N[C@@H](Cc3ccccc3)C(=O)O)c(O)c2C(=O)O1`, the binding result was “weak” in experiment [17], “weak” in experiment [18], “weak” in [19] and “no” in [20].
